According to patent US11779530B2, “Composition for the permanent deformation of hair having reduced odor” (Noxell Corporation, priority 2016, dated 2023):

Assay: distribution coefficient log P (octanol/water) of raw materials
Assay type: physicochemical
Conditions: raw material of one-component malodor suppressant system
Description: In the fields of organic and medicinal chemistry, a distribution (P) coefficient is the ratio of concentrations of a compound in the two phases of a mixture of two immiscible solvents at equilibrium. […] One of the solvents chosen is water while the second is octanol. […] The partition coefficient is the ratio of concentrations of un-ionized compound between the two solutions. The logarithm of the ratio of the concentrations of the un-ionized solute in the solvents is called log P:
[formula] The log P (octanol/water) is referred hereinafter as “log P”, unless otherwise specified.

Row | Molecule | log P (octanol/water)
1 | CC1COCc2cc3c(cc21)C(C)(C)C(C)C3(C)C (stereo not drawn) [S3, Galaxolide] | 5.93
2 | Operanide [S4] | 4.90
3 | CCCCCCCCCCCCCC(=O)OC(C)C [S1, isopropylmyristate] | 7.41
